Source: ChEMBL document CHEMBL5352403, “Monoamine oxidase inhibitors: A concise review with special emphasis on structure activity relationship studies” (Eur J Med Chem, 2022)

Key:
[1] = biological target: T1, Amine oxidase [flavin-containing] A (Homo sapiens, UniProt P21397); assay: Competitive inhibition of recombinant human MAO-A using tyramine hydrochloride as substrate by Ampliflu red reagent and horseradish peroxidase based fluorescence microplate reader analysis
T1 sequence (P21397 whole entry): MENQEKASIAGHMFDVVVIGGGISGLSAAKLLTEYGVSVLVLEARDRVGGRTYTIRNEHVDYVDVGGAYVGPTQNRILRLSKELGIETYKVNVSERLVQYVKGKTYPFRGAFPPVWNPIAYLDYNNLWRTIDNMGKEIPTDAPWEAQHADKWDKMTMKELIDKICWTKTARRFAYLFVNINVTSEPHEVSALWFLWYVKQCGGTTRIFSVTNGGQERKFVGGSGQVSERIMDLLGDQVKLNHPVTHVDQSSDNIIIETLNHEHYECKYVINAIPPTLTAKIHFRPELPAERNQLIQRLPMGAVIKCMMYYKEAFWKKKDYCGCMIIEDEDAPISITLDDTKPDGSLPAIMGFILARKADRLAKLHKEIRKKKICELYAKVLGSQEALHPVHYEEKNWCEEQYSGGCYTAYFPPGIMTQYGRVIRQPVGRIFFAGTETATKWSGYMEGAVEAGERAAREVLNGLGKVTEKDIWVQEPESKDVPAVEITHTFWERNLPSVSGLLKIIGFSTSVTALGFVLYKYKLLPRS

[2] = biological target: T2, Amine oxidase [flavin-containing] B (Homo sapiens, UniProt P27338); assay: Inhibition of recombinant human MAO-B using p-tyramine as substrate incubated for 15 mins by Amplex Red reagent and horseradish peroxidase based fluorometric analysis
T2 sequence (P27338 whole entry): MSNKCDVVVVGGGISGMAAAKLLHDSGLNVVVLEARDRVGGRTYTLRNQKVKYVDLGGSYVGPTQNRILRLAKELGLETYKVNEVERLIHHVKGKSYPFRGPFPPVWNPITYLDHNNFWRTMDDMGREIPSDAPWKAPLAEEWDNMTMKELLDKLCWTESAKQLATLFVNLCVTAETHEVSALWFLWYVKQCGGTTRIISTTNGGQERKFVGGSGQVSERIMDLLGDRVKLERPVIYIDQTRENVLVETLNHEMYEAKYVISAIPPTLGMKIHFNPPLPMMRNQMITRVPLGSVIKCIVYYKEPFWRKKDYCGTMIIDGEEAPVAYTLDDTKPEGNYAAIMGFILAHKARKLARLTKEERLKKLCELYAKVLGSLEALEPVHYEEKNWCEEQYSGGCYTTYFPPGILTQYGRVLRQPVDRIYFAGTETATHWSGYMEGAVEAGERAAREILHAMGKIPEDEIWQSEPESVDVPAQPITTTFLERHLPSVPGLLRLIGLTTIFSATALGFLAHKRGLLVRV

[3] = biological target: T2, Amine oxidase [flavin-containing] B; assay: Inhibition of recombinant human MAO-B using kynuramine as substrate incubated for 30 mins by spectrophotometric assay
[4] = species on record: Homo sapiens; assay: Selectivity index, ratio of Ki for inhibition of human MAO-A to Ki for inhibition of human MAO-B
[5] = biological target: T3, Amine oxidase [flavin-containing] B (Rattus norvegicus, UniProt P19643); assay: Inhibition of rat brain mitochondria MAO-B using benzylamine as substrate incubated for 30 mins by fluorescence microplate reader analysis
T3 sequence (P19643 whole entry): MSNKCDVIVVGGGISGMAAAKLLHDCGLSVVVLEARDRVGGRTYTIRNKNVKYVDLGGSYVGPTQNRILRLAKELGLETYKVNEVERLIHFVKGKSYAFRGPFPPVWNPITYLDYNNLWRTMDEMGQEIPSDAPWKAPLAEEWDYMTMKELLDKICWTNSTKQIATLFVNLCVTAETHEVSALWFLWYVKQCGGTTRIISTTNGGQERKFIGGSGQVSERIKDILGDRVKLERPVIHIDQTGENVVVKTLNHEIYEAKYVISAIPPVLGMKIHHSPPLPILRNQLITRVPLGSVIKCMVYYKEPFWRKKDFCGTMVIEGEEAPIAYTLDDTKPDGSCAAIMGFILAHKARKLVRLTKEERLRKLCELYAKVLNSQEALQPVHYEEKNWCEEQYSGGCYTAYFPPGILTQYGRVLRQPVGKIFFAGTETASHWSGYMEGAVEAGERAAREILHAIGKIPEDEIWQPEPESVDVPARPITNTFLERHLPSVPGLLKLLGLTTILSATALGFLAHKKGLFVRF

[6] = biological target: T2, Amine oxidase [flavin-containing] B; assay: Inhibition of recombinant human MAO-B using p-tyramine as substrate incubated for 45 mins by Amplex Red reagent and horseradish peroxidase based fluorescence microplate reader analysis
[7] = biological target: T1, Amine oxidase [flavin-containing] A; assay: Inhibition of recombinant human MAO-A assessed as inhibition constant by Lineweaver-Burk plot analysis
[8] = biological target: T1, Amine oxidase [flavin-containing] A; assay: Inhibition of recombinant human MAO-A using tyramine as substrate incubated for 60 mins by Ampliflu red reagent and horseradish peroxidase based fluorometric analysis
[9] = biological target: T2, Amine oxidase [flavin-containing] B; assay: Inhibition of human MAO-B using p-tyramine as substrate incubated for 10 mins by Amplex Red reagent and horseradish peroxidase based fluorescence analysis
[10] = biological target: T2, Amine oxidase [flavin-containing] B; assay: Inhibition of recombinant human MAO-B using p-tyramine as substrate incubated for 60 mins by Amplex Red reagent and horseradish peroxidase based fluorescence microplate reader analysis
[11] = species on record: Homo sapiens; assay: Selectivity index, ratio of Ki for inhibition of human MAO-B to Ki for inhibition of human MAO-A
[12] = biological target: T2, Amine oxidase [flavin-containing] B; assay: Inhibition of recombinant human MAO-B using kynuramine as substrate incubated for 20 mins by spectramax fluorescence microplate reader analysis
[13] = biological target: T2, Amine oxidase [flavin-containing] B; assay: Inhibition of recombinant human MAO-B expressed in baculovirus infected BTI insect cells using p-tyramine as substrate incubated for 15 mins by Amplex Red reagent and horseradish peroxidase based fluorometric analysis
[14] = biological target: T1, Amine oxidase [flavin-containing] A; assay: Inhibition of recombinant human MAO-A using kynuramine as substrate incubated for 30 mins by fluorimetric analysis
[15] = biological target: T2, Amine oxidase [flavin-containing] B; assay: Inhibition of recombinant human MAO-B using kynuramine as substrate incubated for 30 mins by fluorimetric analysis
[16] = biological target: T2, Amine oxidase [flavin-containing] B; assay: Inhibition of recombinant human MAO-B using benzylamine as substrate incubated for 30 mins by spectrophotometric assay
[17] = biological target: T2, Amine oxidase [flavin-containing] B; assay: Inhibition of human MAO-B using p-tyramine as substrate incubated for 15 mins by horseradish peroxidase based fluorescence microplate reader analysis
[18] = biological target: T3, Amine oxidase [flavin-containing] B; assay: Inhibition of rat brain mitochondria MAO-B using p-tyramine as substrate incubated for 15 mins by Amplex Red reagent and horseradish peroxidase based fluorometric analysis
[19] = biological target: T1, Amine oxidase [flavin-containing] A; assay: Inhibition of recombinant human MAO-A using kynuramine as substrate incubated for 20 mins by fluorescence based assay
[20] = biological target: T1, Amine oxidase [flavin-containing] A; assay: Inhibition of human MAO-A
[21] = biological target: T2, Amine oxidase [flavin-containing] B; assay: Inhibition of recombinant human MAO-B using kynuramine as substrate incubated for 20 mins by fluorescence based assay
[22] = biological target: T2, Amine oxidase [flavin-containing] B; assay: Reversible inhibition of recombinant human MAO-B incubated for 30 mins by dilution assay
[23] = biological target: T2, Amine oxidase [flavin-containing] B; assay: Inhibition of recombinant human MAO-B using p-tyramine as substrate incubated for 1 hr by Amplex Red reagent and horseradish peroxidase based fluorescence microplate reader analysis
[24] = biological target: T2, Amine oxidase [flavin-containing] B; assay: Inhibition of recombinant human MAO-B expressed in baculovirus infected BTI-TN-5B1-4 insect cells using p-tyramine as substrate incubated for 15 mins by Amplex Red reagent and horseradish peroxidase based fluorometric analysis
[25] = Inhibition of goat liver MAO-B using p-tyramine as substrate incubated for 60 mins by spectrophotometric assay; assay type: tissue-based, Capra hircus
[26] = biological target: T2, Amine oxidase [flavin-containing] B; assay: Inhibition of recombinant human MAO-B using kynuramine as substrate assessed as inhibition constant incubated for 20 mins by spectrophotometric assay

O=[N+]([O-])c1ccc(-c2csc(N/N=C(/CSc3nc4ccccc4s3)c3ccccc3)n2)cc1
IC50 [1]: 95 nM

COc1ccc(-c2cc3cc(Cl)ccc3oc2=O)cc1
IC50 [2]: 4 nM

Cc1ncc(/C=C/c2ccc(O)cc2)c2c1OC(C)(C)OC2
IC50 [3]: 10 nM

NC(=S)N1N=C(c2ccco2)CC1c1ccc(F)cc1 (stereo unspecified)
Ratio Ki [4]: 0.11

C/C(=N\NC(=O)Nc1ncc([N+](=O)[O-])s1)c1ccc(Br)cc1
IC50 [5]: 212 nM

O=C(/C=C/c1ccc(C(F)(F)F)cc1)c1ccc[nH]1
IC50 [6]: 80 nM

COc1ccc(C2CC(c3ccccc3)=NN2C(=O)Cn2c(=O)oc3ccccc32)cc1OC (stereo unspecified)
Ki [7]: 850 nM

CN1CCN(c2ccc(/C=N/Nc3ccccc3)cc2)CC1
IC50 [8]: 28 nM

O=c1oc2cc(Br)ccc2cc1-c1ccc(Br)nn1
IC50 [9]: 60 nM

CCOc1ccccc1N1CCN(c2ccc(-c3nc4cc(C)ccc4[nH]3)cc2)CC1
IC50 [10]: 53 nM

O=C1/C(=C/c2c3ccccc3cc3ccccc23)Oc2ccccc21
Ratio Ki [11]: 0.55

O=C(NNc1nc2ccccc2nc1Cc1ccccc1)c1ccc(O)cc1
IC50 [12]: 17 nM

Cc1cccc(NC(=S)N2N=C(c3ccc(O)cc3)CC2c2cccs2)c1 (stereo unspecified)
IC50 [13]: 200 nM

O=C(CSc1nc2cc(Cl)ccc2s1)N(Cc1cccc([N+](=O)[O-])c1)c1ccc(F)cc1
IC50 [14]: 17000 nM | IC50 [15]: 2950 nM

O=C(/C=C/c1ccc(F)cc1)c1ccc2c(c1)OCCO2
IC50 [16]: 2 nM | IC50 [1]: 95 nM

Cc1cc(=O)c(O)c(CO)n1CCCn1cc(COc2cc3ccccc3oc2=O)nn1
IC50 [17]: 680 nM | IC50 [18]: 5 nM

O=C(/C=C/c1ccc(Cl)cc1)c1ccc2c(c1)OCO2
IC50 [19]: 47 nM | IC50 [20]: 107 nM | IC50 [21]: 20 nM

Cc1c(/N=C/c2ccc(O)cc2)c(=O)n(-c2ccccc2)n1C
IC50 [3]: 10 nM

O=C1CCc2ccc(OCc3ccccc3F)cc2O1
IC50 [22]: 4 nM | IC50 [2]: 0.37 nM

COc1ccc(C(=O)/C=C/c2ccc(N(C)C)cc2)cc1
IC50 [23]: 290 nM | IC50 [10]: 53 nM

Cc1cc(=O)c(O)c(CO)n1CCCn1cc(COc2ccc3ccc(=O)oc3c2)nn1
IC50 [8]: 28 nM

Cc1ncc(/C=C/c2ccc(N3CCN(C)CC3)cc2)c2c1OC(C)(C)OC2
IC50 [3]: 20 nM

C/N=C/c1cn(-c2ccccc2)nc1-c1ccc(F)cc1
IC50 [24]: 24 nM | IC50 [25]: 340 nM

CCCCNc1nnc(SCC(=O)Nc2nc3ccc([N+](=O)[O-])cc3s2)s1
IC50 [20]: 128 nM

CC1CCCCN1c1ccc(/C=N/Nc2ccccc2)cc1 (stereo unspecified)
IC50 [25]: 340 nM

CC1=NN(C(=O)CN2CCNCC2)C(c2cc(Br)cc(Br)c2O)C1 (stereo unspecified)
Ki [26]: 280 nM

C#CCN(C)c1ccc(/C=C/c2cnc(C)c3c2COC(C)(C)O3)cc1
IC50 [3]: 10 nM

COc1ccc2oc(/C=C/c3ccc(Cl)cc3)cc(=O)c2c1
IC50 [12]: 17 nM
